# Data reported in patent publication US20230322789A1, “PYRAZOLOPYRIDAZINONE COMPOUND, AND PHARMACEUTICAL COMPOSITION AND USE THEREOF” (BroadenBio Co., Ltd., priority 2020, published 2023).
# How the values were obtained:
# [1] = tested on: Human Jurkat-E6-1 cells; assay: Measurement of IL-2 secretion of Jurkat cells by ELISA; assay type: cell-based; details: Homo sapiens, Jurkat E6.1, anti-CD3/anti-CD28 stimulation 24 hours, read-out: Percentage of the amount of IL-2 secreted from compound treated/DMSO-treated cells; for activity at 3 µM: test compound 3.0 μM; for activity at 1 µM: test compound 1.0 μM
# Experimental: 2. Measurement of IL-2 Secretion of Jurkat Cells by ELISA
# Human Jurkat-E6-1 cells were incubated with various concentrations of test compounds for 30 minutes in a humidified incubator at 37° C. and […]. Cells were transferred to cell culture plates pre-coated with anti-human CD3 antibody, then soluble anti-human CD28 antibody was added, and cells were stimulated for 24 hours at 37° C. and 5% CO2 in a humidified incubator. The cell culture medium was collected by centrifugation, and was then transferred to a 96-well transparent microtiter plate (Thermo) pre-coated with anti-human IL-2 antibody, incubated at room temperature for 2 hours, and gently shaken, washed with washing buffer for 4 times, and then followed the ELISA MAX Deluxe Set Human IL-2 (BioLegend) kit procedure, used a microplate reader (Molecular Device, i3X) to read the GD value. The best standard curve was selected by the microplate reader application software, and the corresponding concentration was calculated according to the GD value of the standard. Results are expressed as a percentage of the amount of IL-2 secreted from compound-treated/DMSO-treated cells.
# [2] = target: HPK1 (Homo sapiens (Human), UniProt Q92918); assay: HPK1 kinase activity inhibition test (ADP-Glo, luminescence); assay type: biochemical; details: HPK1 5 nM, ATP 2 μM, read-out: IC50, inhibitory effects of compounds on HPK1 kinase activity
# Sequence of HPK1 (Q92918 whole entry): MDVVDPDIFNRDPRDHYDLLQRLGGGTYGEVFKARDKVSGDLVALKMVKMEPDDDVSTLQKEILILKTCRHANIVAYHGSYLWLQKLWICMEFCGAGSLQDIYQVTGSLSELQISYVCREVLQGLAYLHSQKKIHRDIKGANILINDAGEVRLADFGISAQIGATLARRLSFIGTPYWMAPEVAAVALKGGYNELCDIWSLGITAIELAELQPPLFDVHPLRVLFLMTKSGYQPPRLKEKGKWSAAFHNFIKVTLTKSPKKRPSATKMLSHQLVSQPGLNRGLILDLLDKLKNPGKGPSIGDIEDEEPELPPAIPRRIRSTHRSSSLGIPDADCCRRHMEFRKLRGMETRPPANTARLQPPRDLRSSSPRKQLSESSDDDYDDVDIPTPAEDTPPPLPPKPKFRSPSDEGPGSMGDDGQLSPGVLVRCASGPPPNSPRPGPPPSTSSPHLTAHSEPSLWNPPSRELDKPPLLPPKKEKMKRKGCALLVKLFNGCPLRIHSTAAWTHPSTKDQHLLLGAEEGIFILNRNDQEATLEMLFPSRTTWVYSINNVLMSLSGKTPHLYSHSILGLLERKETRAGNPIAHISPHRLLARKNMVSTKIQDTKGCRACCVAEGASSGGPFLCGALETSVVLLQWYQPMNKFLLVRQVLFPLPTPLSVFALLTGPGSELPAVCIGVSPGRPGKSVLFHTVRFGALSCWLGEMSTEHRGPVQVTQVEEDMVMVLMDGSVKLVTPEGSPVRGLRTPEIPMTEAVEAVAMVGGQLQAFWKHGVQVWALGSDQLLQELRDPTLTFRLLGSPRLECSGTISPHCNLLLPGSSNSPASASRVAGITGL
# Experimental: 1. HPK1 Kinase Activity Inhibition Test
# The kinase activity of HPK1 is manifested as activity of autophosphorylation and phosphorylation of downstream substrates. In the process of autophosphorylation, additional substrates are not required, and ATP is consumed to generate ADP. The amount of the product was measured by ADP-Glo reagent and luminescence method to reflect kinase activity.
# Test compounds: compounds prepared in the examples of this application.
# Prepare compound stock solution: dissolve the compound to be tested in 100% DMSO to make a 10 mM stock solution;
# Prepare 4× Kinase Reaction Buffer:
# Prepare 2×HPK1 Kinase Solution:
# Dilute the stock solution of the compound to be tested by 5 times with […], make a 4-fold equal dilution in a 96-well dilution plate, add 1 μL of the compound to 49 µL of kinase reaction buffer, and shake on a microplate shaker for 20 minutes. Transfer 2 μL of […] kinase solution to 384 reaction plate, add 1 μL of the test compound to the 384 reaction plate (Greiner, 784075), centrifuge for 1 minute (1000 rpm/min), incubate at 25° C. for 10 minutes. Transfer […] of the 4×ATP mixture to a 384 reaction plate, centrifuge for 1 minute (1000 rpm/mm), and incubate at 25° C. for 60 minutes. In the reaction system, the final concentration of DMSO was […]. Transfer 4 μL of ADP-Glo to a 384 reaction plate, centrifuge for 1 minute (1000 rpm/min), and incubate at 25° C. for 40 minutes. Transfer 8 μL detection solution to a 384 reaction plate, centrifuge for 1 minute (1000 rpm/min), and incubate at 25° C. for 40 minutes. The […] signal was read using a Biotek multi-function plate reader, and the […] (half inhibitory concentration) of the compound was obtained using a four-coefficient nonlinear fitting formula.
SMILES,IC50 [2] [nM],activity at 3 µM [1] [%],activity at 1 µM [1] [%]
Cc1cc(Cl)cc(F)c1-n1nc2c(-c3ccc(N4CCN(C)CC4)nc3)n[nH]c2cc1=O [Compound 108],50 to 500,312,
"Cc1cccc(F)c1-n1nc2c(-c3ccc(N4CCN(C)CC4CO)cc3)n[nH]c2cc1=O (centres unmarked) [Compound 130, 5-(2-fluoro-6-methylphenyl)-3-(4-(2-(hydroxymethyl)-4-methylpiperazin-1-yl)phenyl)-1H-pyrazolo[4,3-c]pyridazin-6(5H)-one]",≤ 50,454,
"COc1cc(N2CCN(C)CC2)ccc1-c1n[nH]c2cc(=O)n(-c3c(C)cccc3F)nc12 [Compound 16, 5-(2-fluoro-6-methylphenyl)-3-(2-methoxy-4-(4-methylpiperazin-1-yl)phenyl)-1H-pyrazolo[4,3-c]pyridazin-6(5H)-one]",500 to 2000,,156
"Cc1cccc(F)c1-n1nc2c(-c3ccc(N4CCn5ccnc5C4)cc3)n[nH]c2cc1=O [Compound 137, 3-(4-(5,6-dihydroimidazolo[1,2-a]pyrazin-7(8H)-yl)phenyl)-5-(2-fluoro-6-methylphenyl)-1H-pyrazolo[4,3-c]pyridazin-6(5H)-one]",≤ 50,291,
"COc1ccc(-n2nc3c(-c4ccc(N5CCN(C)CC5)cc4)n[nH]c3cc2=O)c(OC)c1 [Compound 25, 5-(2,4-dimethoxyphenyl)-3-(4-(4-methylpiperazin-1-yl)phenyl)-1H-pyrazolo[4,3-c]pyridazin-6(5H)-one]",50 to 500,,187
"COc1cc(C#N)cc(F)c1-n1nc2c(-c3ccc(N4CCN5C(=O)OCC5C4)cc3)n[nH]c2cc1=O (centres unmarked) [Compound 124, 3-fluoro-5-methoxy-4-(6-oxo-3-(4-(3-oxotetrahydro-1H-oxazolo[3,4-a]pyrazin-7(3H)-yl)phenyl)-1H-pyrazolo[4,3-c]pyridazin-5(6H)-yl)benzonitrile]",≤ 50,570,
"COc1cccc(F)c1-n1nc2c(-c3ccc(N4CCN(C)CC4)cc3)n[nH]c2cc1=O [Compound 9, 5-(2-fluoro-6-methoxyphenyl)-3-(4-(4-methylpiperazin-1-yl)phenyl)-1H-pyrazolo[4,3-c]pyridazin-6(5H)-one]",≤ 50,188,
"CCc1cccc(F)c1-n1nc2c(-c3ccc(N4CCN(CC(C)(C)O)CC4)cc3)n[nH]c2cc1=O [Compound 116, 5-(2-ethyl-6-fluorophenyl)-3-(4-(4-(2-hydroxyl-2-methylpropyl)piperazin-1-yl)phenyl)-1H-pyrazolo[4,3-c]pyridazin-6(5H)-one]",,,193
"Cc1cccc(F)c1-n1nc2c(-c3ccc(N4CCN5C(=O)OCC5C4)nc3)n[nH]c2cc1=O (centres unmarked) [Compound 129, 7-(5-(5-(2-fluoro-6-methylphenyl)-6-oxo-5,6-dihydro-1H-pyrazolo[4,3-c]pyridazin-3-yl)pyridin-2-yl)tetrahydro-1H-oxazolo[3,4-a]pyrazin-3(5H)-one]",,807,
"Cc1cccc(F)c1-n1nc2c(-c3ccc(N4CC5CC(C4)N5C)cc3)n[nH]c2cc1=O [Compound 91, 5-(2-fluoro-6-methylphenyl)-3-(4-(6-methyl-3,6-diazabicyclo[3.1.1]heptan-3-yl)phenyl)-1H-pyrazolo[4,3-c]pyridazin-6(5H)-one]",≤ 50,,
"Cc1cccc(F)c1-n1nc2c(-c3ccc(N4CCN(C)C(C(=O)O)C4)cc3)n[nH]c2cc1=O (centres unmarked) [Compound 131, 4-(4-(5-(2-fluoro-6-methylphenyl)-6-oxo-5,6-dihydro-1H-pyrazolo[4,3-c]pyridazin-3-yl)phenyl)-1-methylpiperazin-2-carboxylic acid]",50 to 500,,
"Cc1cccc(F)c1-n1nc2c(-c3ccc4c(c3)C3COC(=O)N3CC4)n[nH]c2cc1=O (centres unmarked) [Compound 185, 9-(5-(2-fluoro-6-methylphenyl)-6-oxo-5,6-dihydro-1H-pyrazolo[4,3-c]pyridazin-3-yl)-5,6-dihydro-1H-oxazolo[4,3-a]isoquinolin-3(10bH)-one]",500 to 2000,,
COc1cc(C)c(-n2nc3c(-c4ccc(N5CCN(C)CC5)cc4)n[nH]c3cc2=O)cn1 [Compound 149],500 to 2000,,
"COc1cccc(F)c1-n1nc2c(-c3ccc(N4CCOCC4)cc3)n[nH]c2cc1=O [Compound 92, 5-(2-fluoro-6-methoxyphenyl)-3-(4-morpholinophenyl)-1H-pyrazolo[4,3-c]pyridazin-6(5H)-one]",≤ 50,,
"Cc1cc(C#N)cc(F)c1-n1nc2c(-c3ccc4c(c3)CN(C(=O)CO)CC4)n[nH]c2cc1=O [Compound 172, 3-fluoro-4-(3-(2-(2-hydroxylacetyl)-1,2,3,4-tetrahydroisoquinolin-7-yl)-6-oxo-1H-pyrazolo[4,3-c]pyridazin-5(6H)-yl)-5-methylbenzonitrile]",50 to 500,,
"COc1cccc(F)c1-n1nc2c(-c3ccc(C4CCN(C)CC4)cc3)n[nH]c2cc1=O [Compound 24, 5-(2-fluoro-6-methoxyphenyl)-3-(4-(1-methylpiperidin-4-yl)phenyl)-1H-pyrazolo[4,3-c]pyridazin-6(5H)-one]",≤ 50,,

# The next lines start with results.
IC50 [2] [nM],SMILES,activity at 3 µM [1] [%],activity at 1 µM [1] [%]
≤ 50,"COc1cc(C#N)cc(F)c1-n1nc2c(-c3ccc(N4CCN(C)CC4)cc3)n[nH]c2cc1=O [Compound 74, 3-fluoro-5-methoxy-4-(3-(4-(4-methylpiperazin-1-yl)phenyl)-6-oxo-1H-pyrazolo[4,3-c]pyridazin-5(6H)-yl)benzonitrile]",411,
≤ 50,"Cc1cccc(F)c1-n1nc2c(-c3ccc4c(c3)CN(CCO)CC4)n[nH]c2cc1=O [Compound 162, 5-(2-fluoro-6-methylphenyl)-3-(2-(2-hydroxyethyl)-1,2,3,4-tetrahydroisoquinolin-7-yl)-1H-pyrazolo[4,3-c]pyridazin-6(5H)-one]",586,
≤ 50,"CCc1cccc(F)c1-n1nc2c(-c3cccc(N4CCN(C)CC4)c3)n[nH]c2cc1=O [Compound 200, 5-(2-ethyl-6-fluorophenyl)-3-(3-(4-methylpiperazin-1-yl)phenyl)-1H-pyrazolo[4,3-c]pyridazin-6(5H)-one]",286,
50 to 500,"COc1ccncc1-n1nc2c(-c3ccc(-c4cnn(C)c4)cc3)n[nH]c2cc1=O [Compound 152, 5-(4-methoxypyrid-3-yl)-3-(4-(1-methyl-1H-pyrazol-4-yl)phenyl)-1H-pyrazolo[4,3-c]pyridazin-6(5H)-one]",,
≤ 50,"COc1cccc(F)c1-n1nc2c(-c3ccc(N4CCN5C(=O)CN(C)CC5C4)cc3)n[nH]c2cc1=O (centres unmarked) [Compound 132, 8-(4-(5-(2-fluoro-6-methoxyphenyl)-6-oxo-5,6-dihydro-1H-pyrazolo[4,3-c]pyridazin-3-yl)phenyl)-2-methylhexahydro-1H-pyrazino[1,2-a]pyrazin-4(6H)-one]",,
50 to 500,"COc1ccncc1-n1nc2c(-c3ccc(N4CCN(C)CC4)cc3)n[nH]c2cc1=O [Compound 48, 5-(4-methoxypyrid-3-yl)-3-(4-(4-methylpiperazin-1-yl)phenyl)-1H-pyrazolo[4,3-c]pyridazin-6(5H)-one]",,
50 to 500,"COc1cccc(C)c1-n1nc2c(-c3ccc(N4CCN(C)CC4)nc3)n[nH]c2cc1=O [Compound 97, 5-(2-methoxy-6-methylphenyl)-3-(6-(4-methylpiperazin-1-yl)pyrid-3-yl)-1H-pyrazolo[4,3-c]pyridazin-6(5H)-one]",,
≤ 50,"Cc1cccc(F)c1-n1nc2c(-c3ccc4c(c3)CCN(C3CN(C)C3)C4)n[nH]c2cc1=O [Compound 194, 5-(2-fluoro-6-methylphenyl)-3-(2-(1-methylazetidin-3-yl)-1,2,3,4-tetrahydroisoquinolin-6-yl)-1H-pyrazolo[4,3-c]pyridazin-6(5H)-one]",,
50 to 500,"Cc1cccc(F)c1-n1nc2c(-c3ccc4c(c3)CN(C)C(C)(C)C4)n[nH]c2cc1=O [Compound 178, 5-(2-fluoro-6-methylphenyl)-3-(2,3,3-trimethyl-1,2,3,4-tetrahydroisoquinolin-7-yl)-1H-pyrazolo[4,3-c]pyridazin-6(5H)-one]",,
